Reference: paper PMC3504108 (PLoS ONE, 2012)

Legend:
Sirt5 [1] = target: T1, Sirt5 (Homo sapiens, UniProt Q9NXA8); test: ELISA-based deacetylation assay (weak inhibition, Figure S3B); format: biochemical
T1 construct: catalytic core, residues 34–302
T1 sequence (Q9NXA8 34-302): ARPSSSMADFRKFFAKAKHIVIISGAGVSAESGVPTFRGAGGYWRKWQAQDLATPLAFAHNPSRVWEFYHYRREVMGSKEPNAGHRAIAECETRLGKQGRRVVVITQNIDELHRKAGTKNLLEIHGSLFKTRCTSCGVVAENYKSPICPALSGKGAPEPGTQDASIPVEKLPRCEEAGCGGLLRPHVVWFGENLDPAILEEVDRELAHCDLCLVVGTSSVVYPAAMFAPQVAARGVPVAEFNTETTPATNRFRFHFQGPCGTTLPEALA

Sirt3 [2] = target: T2, Sirt3 (Homo sapiens, UniProt Q9NTG7); test: ELISA-based deacetylation assay (Figure S3B); format: biochemical
T2 sequence (Q9NTG7 102-399): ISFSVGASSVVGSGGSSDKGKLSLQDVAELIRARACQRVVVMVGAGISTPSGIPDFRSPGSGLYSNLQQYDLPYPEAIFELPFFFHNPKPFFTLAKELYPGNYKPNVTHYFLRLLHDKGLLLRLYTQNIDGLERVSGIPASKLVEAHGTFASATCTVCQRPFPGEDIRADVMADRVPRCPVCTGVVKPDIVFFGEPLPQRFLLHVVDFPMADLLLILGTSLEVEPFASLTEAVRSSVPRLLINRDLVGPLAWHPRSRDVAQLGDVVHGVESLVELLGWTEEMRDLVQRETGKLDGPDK

Sirt5 [3] = target: T1, Sirt5; test: X-ray crystal structure ([…] Å, ternary with FdL1 peptide; ligand occupancy […]), plus deacetylase activation assays; format: binding
Sirt5 [4] = target: T1, Sirt5; test: FdL1 fluorogenic deacetylation assay (activation dose-response); format: biochemical
Sirt3 [5] = target: T3, Sirt3 (Homo sapiens, UniProt Q9NTG7); test: X-ray crystal structure ([…] Å, ternary with FdL1 peptide), plus FdL2 deacetylation inhibition; format: binding
T3 construct: catalytic core, residues 118–399
T3 sequence (Q9NTG7 118-399): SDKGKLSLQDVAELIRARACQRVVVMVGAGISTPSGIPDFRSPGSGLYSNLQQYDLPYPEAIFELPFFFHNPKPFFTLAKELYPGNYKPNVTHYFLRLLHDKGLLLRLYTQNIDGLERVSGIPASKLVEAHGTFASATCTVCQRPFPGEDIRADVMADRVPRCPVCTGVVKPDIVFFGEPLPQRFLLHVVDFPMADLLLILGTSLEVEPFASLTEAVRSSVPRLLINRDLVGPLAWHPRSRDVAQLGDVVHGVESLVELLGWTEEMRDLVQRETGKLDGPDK

Sirt5 [6] = target: T1, Sirt5; test: Cytochrome c deacetylation ELISA (activation, Figure S3A); format: biochemical

`O=c1c(O)c(-c2ccc(O)c(O)c2)oc2cc(O)ccc12` [fisetin] was tested, and the “ELISA-based deacetylation assay (weak inhibition, Figure S3B)” value (Sirt5 [1]) was “only fisetin shows a weak inhibitory effect on Sirt5” and the “ELISA-based deacetylation assay (Figure S3B)” value (Sirt3 [2]) was “only fisetin shows a weak inhibitory effect on Sirt5 and significant inhibition of Sirt3 in an ELISA-based deacetylation assay”.

For `Oc1ccc(/C=C/c2cc(O)cc(O)c2)cc1` [resveratrol], the “X-ray crystal structure (2.6 Å, ternary with FdL1 peptide); ligand occupancy ~50%” value (Sirt5 [3]) was “Co-ordinates and structure factors of Sirt5 in complex with FdL1-peptide and resveratrol”.

With `Oc1cc(O)cc(/C=C/c2ccc(O)c(O)c2)c1` [piceatannol] the EC50 (Sirt5 [4]) was 70 ± 20 µM and the “X-ray crystal structure (2.3 Å, ternary with FdL1 peptide), plus FdL2 deacetylat” value (Sirt3 [5]) was “we also solved the crystal structure of Sirt3 in complex with FdL1-peptide and piceatannol”.

For `OCCc1ccc(O)cc1` [tyrosol, 4-(2-hydroxyethyl)phenol], the “Cytochrome c deacetylation ELISA (activation, Figure S3A)” value (Sirt5 [6]) was “activates Sirt5 in a Cytochrome c deacetylation assay (see below, Figure S3A)”.
